The record followed here is the Biogen ADME set (Fang et al. 2023).

For this series the following is noted: for aqueous solubility: pH 6.8.

In brackets after ≈: the same amount, converted by molar mass.

With `N#Cc1cc(CN2CCC(Nc3ncnc4sc(Cl)cc34)CC2)ccc1F`, the MDR1-MDCK efflux ratio was found to be 9.4; the intrinsic clearance, human liver microsomes came to 123 mL/min/kg; the intrinsic clearance, rat liver microsomes came to 1680 mL/min/kg.

As to `O=C(CCNC(=O)c1ccc(OC(F)(F)F)cc1)N[C@@H]1CCCc2ccccc21`, the MDR1-MDCK efflux ratio came to 3.14; the fraction unbound, human plasma is 0.0336; the fraction unbound, rat plasma came to 0.0427; the intrinsic clearance, human liver microsomes stood at 154 mL/min/kg. The same compound gave an intrinsic clearance, rat liver microsomes of 797 mL/min/kg and an aqueous solubility of 4.6 µg/mL (≈ 11.3 µM).

For the compound `O=C(NCCN1CCc2ccccc2C1=O)c1ccncc1`, the intrinsic clearance, human liver microsomes came out at 13.6 mL/min/kg and the intrinsic clearance, rat liver microsomes was found to be 240 mL/min/kg.

As to `Cc1cc(Nc2ccc(F)cn2)cc(C2CCN(C(=O)CCn3ncc4ccccc43)C2)n1` (stereo not drawn), the MDR1-MDCK efflux ratio came out at 60; the intrinsic clearance, human liver microsomes amounted to 345 mL/min/kg; the intrinsic clearance, rat liver microsomes amounted to 2300 mL/min/kg.

As for `Cn1cc(Nc2nccc(N3CC4CCC(C3)N4C(=O)[C@@H]3CC3(F)F)n2)cn1`, the MDR1-MDCK efflux ratio turned out to be 39.9; the fraction unbound, human plasma worked out at 0.44; the fraction unbound, rat plasma was determined as 0.612; the intrinsic clearance, human liver microsomes turned out to be 7.26 mL/min/kg. The same compound returned an intrinsic clearance, rat liver microsomes of 32.5 mL/min/kg.

`CC1(C)CN(CC(=O)NCC#N)c2cccc(Cl)c21`: the MDR1-MDCK efflux ratio came out at 0.597; the intrinsic clearance, human liver microsomes came to 21.2 mL/min/kg; the intrinsic clearance, rat liver microsomes was determined as 444 mL/min/kg; the aqueous solubility worked out at 28.5 µg/mL (≈ 103 µM).

As for `CC1(C)CC(CC(=O)NCCn2ccnn2)CC(C)(C)N1`, the MDR1-MDCK efflux ratio worked out at 0.186; the intrinsic clearance, human liver microsomes was ≤ 4.74 mL/min/kg; the intrinsic clearance, rat liver microsomes was ≤ 10.7 mL/min/kg.

As to `Cc1cnc(C(=O)N[C@H]2CCOC[C@@H]2O)cc1Cc1ccc(-c2cscn2)cc1`, the MDR1-MDCK efflux ratio stood at 6.89; the intrinsic clearance, human liver microsomes is ≤ 4.74 mL/min/kg; the intrinsic clearance, rat liver microsomes came to 34.8 mL/min/kg; the aqueous solubility came to 61.9 µg/mL (≈ 151 µM).

On to `CNc1nc(C)nc(N[C@H]2CCC[C@@H](C(=O)NCc3ccc(C#N)cc3C(F)(F)F)C2)n1`, for which the MDR1-MDCK efflux ratio stood at 108; the intrinsic clearance, human liver microsomes was 18.4 mL/min/kg; the intrinsic clearance, rat liver microsomes was determined as 91.3 mL/min/kg.

For the compound `CCOC(=O)c1cc2ccccc2n1CC(=O)c1ccc(F)cc1`, the MDR1-MDCK efflux ratio is 0.662; the intrinsic clearance, human liver microsomes is 756 mL/min/kg; the intrinsic clearance, rat liver microsomes was 1890 mL/min/kg; the aqueous solubility amounted to 6.56 µg/mL (≈ 20.2 µM).

For `Cc1ncsc1CCN1C(=O)NC2(CCCC2)C1=O`, the intrinsic clearance, human liver microsomes is ≤ 4.74 mL/min/kg and the intrinsic clearance, rat liver microsomes is 172 mL/min/kg.

Turning to `CCc1oc2c(-n3cnnc3)cccc2c1C`, the MDR1-MDCK efflux ratio was found to be 0.587; the intrinsic clearance, human liver microsomes stood at 111 mL/min/kg; the intrinsic clearance, rat liver microsomes is 169 mL/min/kg; the aqueous solubility was 22.6 µg/mL (≈ 99.4 µM).

Regarding `O=[N+]([O-])c1ccc(S(=O)(=O)Nc2cccc(-c3nc4ccccc4[nH]3)c2)cc1`, the intrinsic clearance, human liver microsomes came out at 21.1 mL/min/kg and the intrinsic clearance, rat liver microsomes amounted to 993 mL/min/kg.

The compound `O=C(C1CC1)N1CCCC(C(=O)N2CCc3ccccc3C2Cc2ccccc2)C1` (stereo not drawn) registered an intrinsic clearance, human liver microsomes of 643 mL/min/kg; an intrinsic clearance, rat liver microsomes of 4390 mL/min/kg; an aqueous solubility of 45 µg/mL (≈ 112 µM).

For the compound `Cc1cc(CN2CCC(N(C)c3ncc(Cl)cn3)CC2)on1`, the MDR1-MDCK efflux ratio was found to be 0.58; the intrinsic clearance, human liver microsomes turned out to be 16 mL/min/kg; the intrinsic clearance, rat liver microsomes is 127 mL/min/kg.

For the compound `Cc1cc2ncn(CC(=O)NC(C)(C)C)c2cc1C`, the MDR1-MDCK efflux ratio is 5.53; the intrinsic clearance, human liver microsomes is ≤ 4.74 mL/min/kg; the intrinsic clearance, rat liver microsomes was determined as 70.1 mL/min/kg; the aqueous solubility came out at 39.1 µg/mL (≈ 151 µM).

Take `CN(c1ccccc1N)S(C)(=O)=O`: the intrinsic clearance, human liver microsomes amounted to 10.2 mL/min/kg and the intrinsic clearance, rat liver microsomes amounted to 24.1 mL/min/kg.

With `NC(=O)c1ccc(Oc2ccc(C(=O)N3CCCCCC3)cc2)cc1`, the MDR1-MDCK efflux ratio is 4.9; the intrinsic clearance, human liver microsomes amounted to 11.4 mL/min/kg; the intrinsic clearance, rat liver microsomes stood at 82.3 mL/min/kg; the aqueous solubility worked out at 59.8 µg/mL (≈ 177 µM).

Consider `NC1CCCC(C(=O)Nc2ccc3[nH]ncc3c2)C1` (stereo not drawn), for which the MDR1-MDCK efflux ratio is 0.764; the fraction unbound, human plasma was determined as 1; the intrinsic clearance, human liver microsomes was determined as 12.7 mL/min/kg.

With `CSc1nccc(N2Cc3cnn(Cc4ccc(F)cc4)c3C2)n1`, the MDR1-MDCK efflux ratio worked out at 0.579; the intrinsic clearance, human liver microsomes worked out at 141 mL/min/kg; the intrinsic clearance, rat liver microsomes turned out to be 2590 mL/min/kg.

As for `O=C(NCCc1ccccc1)c1ccc(NC(=O)N2CCCCc3ccccc32)cc1`, the MDR1-MDCK efflux ratio was 2.11; the fraction unbound, human plasma worked out at 0.0119; the intrinsic clearance, human liver microsomes came to 256 mL/min/kg.

`Cc1cc(Nc2ccc(F)cn2)cc(C2CCN(C(=O)CCc3cccc(Cl)c3)C2)n1` (stereo not drawn): the MDR1-MDCK efflux ratio is 9.81; the intrinsic clearance, human liver microsomes came to 562 mL/min/kg; the intrinsic clearance, rat liver microsomes was 2270 mL/min/kg.

Regarding `C=C(C)COc1cccc(C(=O)NCc2nncn2C2CCCCC2)c1`, the MDR1-MDCK efflux ratio came to 16.9; the intrinsic clearance, human liver microsomes was 158 mL/min/kg; the intrinsic clearance, rat liver microsomes came to 2090 mL/min/kg; the aqueous solubility was 26.9 µg/mL (≈ 75.9 µM).

On to `Cc1cc(C(=O)NC2CCN(C(=O)c3cc(C)sc3C)CC2)no1`, for which the MDR1-MDCK efflux ratio is 1.56; the intrinsic clearance, human liver microsomes is 9.77 mL/min/kg; the intrinsic clearance, rat liver microsomes was 93.7 mL/min/kg; the aqueous solubility was 61.2 µg/mL (≈ 176 µM).

For the compound `Cc1cc(C)nc(NCc2cnc(C)c(C)c2)n1`, the MDR1-MDCK efflux ratio turned out to be 0.622; the intrinsic clearance, human liver microsomes was 12.5 mL/min/kg; the intrinsic clearance, rat liver microsomes is 162 mL/min/kg; the aqueous solubility worked out at 13.3 µg/mL (≈ 54.9 µM).

`Cc1ccccc1N1C(=O)c2ccc(C(=O)NC(C)(C)C)cc2C1=O` yielded an aqueous solubility of 49.9 µg/mL (≈ 148 µM).

On to `COc1ccc(Nc2c(C#N)cnc3cc(OC)c(OC)cc23)cc1Cl`, for which the MDR1-MDCK efflux ratio is 3.24; the fraction unbound, human plasma is 0.00925; the fraction unbound, rat plasma worked out at 0.0131; the intrinsic clearance, human liver microsomes was found to be 53.1 mL/min/kg. Also, the intrinsic clearance, rat liver microsomes came out at 574 mL/min/kg.

As to `COc1cc(CNc2nnn[nH]2)cc(Br)c1OCc1ccc(Cl)cc1`, the MDR1-MDCK efflux ratio was 4.03; the intrinsic clearance, human liver microsomes was 10.5 mL/min/kg; the intrinsic clearance, rat liver microsomes is 74.5 mL/min/kg; the aqueous solubility worked out at 1.88 µg/mL (≈ 4.43 µM).

Turning to `O=c1[nH]c2ccccc2n1C1CCN(Cc2nc(Cc3ccccc3)no2)CC1`, the intrinsic clearance, human liver microsomes was found to be 69.7 mL/min/kg and the intrinsic clearance, rat liver microsomes is 857 mL/min/kg.

As for `C=CCNC(=O)C1(Cc2ccc(-c3ccccc3)cc2)CCN(C(=O)c2cccnc2)CC1`, the MDR1-MDCK efflux ratio was 28; the intrinsic clearance, human liver microsomes came out at 76.7 mL/min/kg; the intrinsic clearance, rat liver microsomes worked out at 557 mL/min/kg; the aqueous solubility is 4 µg/mL (≈ 9.1 µM).

With `CC1CCC(CNC2(CCO)CCOCC2)CC1` (stereo not drawn), the MDR1-MDCK efflux ratio amounted to 1.29; the intrinsic clearance, human liver microsomes is ≤ 4.74 mL/min/kg; the intrinsic clearance, rat liver microsomes was 1200 mL/min/kg.

Turning to `Cc1nccc(-c2cccc(NCC(=O)N(C)c3ccccc3)c2)n1`, the MDR1-MDCK efflux ratio was 0.964; the intrinsic clearance, human liver microsomes turned out to be 22 mL/min/kg; the intrinsic clearance, rat liver microsomes came out at 401 mL/min/kg; the aqueous solubility came out at 38.2 µg/mL (≈ 115 µM).

`CCC(Oc1ccccc1)C(=O)Nc1nc2ccccc2[nH]1` (stereo not drawn) displayed an aqueous solubility of 11.8 µg/mL (≈ 40.1 µM).

For `COc1ccc(CNC(=O)CCCOc2ccc(C(C)=O)cc2)cc1`, the MDR1-MDCK efflux ratio is 1.02; the intrinsic clearance, human liver microsomes is 34.5 mL/min/kg; the intrinsic clearance, rat liver microsomes was 644 mL/min/kg; the aqueous solubility came to 20.2 µg/mL (≈ 59.2 µM).

As for `O=C(Nc1ccccc1)c1sc(N2CCOCC2)nc1-c1ccccc1`, the MDR1-MDCK efflux ratio is 0.494 and the aqueous solubility is 0.26 µg/mL (≈ 0.711 µM).

`NC(=O)c1cnc(N2CCc3[nH]nc(C(F)(F)F)c3C2)c(Cl)c1`: the MDR1-MDCK efflux ratio turned out to be 7.33; the fraction unbound, human plasma was determined as 0.0968; the intrinsic clearance, human liver microsomes is ≤ 4.74 mL/min/kg.

As to `CC(C)N(CCCNC(=O)Nc1ccc(C(C)(C)C)cc1)C[C@@H]1O[C@@H](n2cc(Br)c3c(N)ncnc32)[C@H](O)[C@H]1O`, the MDR1-MDCK efflux ratio stood at 17; the intrinsic clearance, human liver microsomes was determined as 354 mL/min/kg; the intrinsic clearance, rat liver microsomes is 2010 mL/min/kg.

Consider `C=CC(=O)N1CCC[C@@H](n2nc(-c3cccc(C(=O)Nc4ccc(C(C)C)c(C)c4)c3)c3c(N)ncnc32)C1`, for which the MDR1-MDCK efflux ratio turned out to be 34.9 and the aqueous solubility stood at 0.17 µg/mL (≈ 0.325 µM).

In the case of `COCC1(c2nc(-c3ccncc3)nn2Cc2cccc(Cl)c2)CC1`, the MDR1-MDCK efflux ratio turned out to be 0.731; the intrinsic clearance, human liver microsomes was 341 mL/min/kg; the intrinsic clearance, rat liver microsomes came to 1420 mL/min/kg; the aqueous solubility turned out to be 28 µg/mL (≈ 79 µM).

As for `COc1ccccc1-n1cc2c(c1-c1ccccc1Br)c(=O)n(C)c(=O)n2C`, the MDR1-MDCK efflux ratio was 2.26 and the aqueous solubility was determined as 0.81 µg/mL (≈ 1.84 µM).

`Cc1cc(CCCC(=O)NC[C@H]2CC[C@H](c3ccc(C(N)=O)c(C)n3)CC2)ccc1F`: the MDR1-MDCK efflux ratio is 33.3; the intrinsic clearance, human liver microsomes was 214 mL/min/kg; the intrinsic clearance, rat liver microsomes amounted to 808 mL/min/kg; the aqueous solubility worked out at 3.18 µg/mL (≈ 7.47 µM).

`CN(CC#N)C(=O)c1cccc(CN2CCCC2)c1`: the MDR1-MDCK efflux ratio came out at 2.59; the intrinsic clearance, human liver microsomes was ≤ 4.74 mL/min/kg; the intrinsic clearance, rat liver microsomes amounted to 322 mL/min/kg; the aqueous solubility was determined as 34.9 µg/mL (≈ 136 µM).

With `CCN(CC)C(=O)CSCc1cncc(F)c1`, the MDR1-MDCK efflux ratio was determined as 0.711; the intrinsic clearance, human liver microsomes is 31.2 mL/min/kg; the intrinsic clearance, rat liver microsomes worked out at 835 mL/min/kg.

Regarding `COc1ncnc2c1CN(Cc1c[nH]nc1-c1ccc(F)cc1)CC2`, the MDR1-MDCK efflux ratio stood at 7.03; the intrinsic clearance, human liver microsomes turned out to be 70.7 mL/min/kg; the intrinsic clearance, rat liver microsomes was 210 mL/min/kg; the aqueous solubility was 28.4 µg/mL (≈ 83.5 µM).

For `N#Cc1ccccc1Cn1nnc(-c2ccccc2)n1`, the MDR1-MDCK efflux ratio was 0.448; the intrinsic clearance, human liver microsomes was 10.7 mL/min/kg; the intrinsic clearance, rat liver microsomes is 211 mL/min/kg; the aqueous solubility came to 11.4 µg/mL (≈ 43.8 µM).

By aqueous solubility is commonly meant the dissolved amount per volume that the medium holds. A high value points to much dissolved substance.
